Test results reported in publication PMC6687188, “Novel lactate dehydrogenase inhibitors with in vivo efficacy against Cryptosporidium parvum” (PLoS Pathogens, 2019).

The compounds below were run against recombinant CpLDH protein (Cryptosporidium parvum, UniProt Q9GT92, F198L/K295E/R251K).

First: COc1cc2c3cc1Oc1c(OC)c(OC)cc4c1[C@H](Cc1ccc(cc1)Oc1cc(ccc1O)C[C@H]3N(C)CC2)N(C)CC4 [NSC93135]
Second: COc1cc2c(c(O)c1OC)-c1c(cc(OC)c(OC)c1OC)C[C@@H](C)[C@@H](C)C2 [NSC330515]
The “MEAN CpLDH INHIBITION (%)” value of the first is higher: -27.33% for the first, -43.86% for the second.

Compared with COc1cc2c[n+](C)c3c4cc5c(cc4ccc3c2cc1OC)OCO5.[Cl-] [NSC146397], COc1c2c(c(OC)c3c1c(=O)c1ccccc1n3C)OCO2 [NSC34757] is lower in “MEAN CpLDH INHIBITION (%)” value: -1.75% for the first, -24.18% for the second.

Compared with C=CC(=O)N1C/C(=C\c2ccccc2)C(=O)/C(=C/c2ccccc2)C1 [NSC632841], Cl.NC1(CCNC(=O)c2ccccc2)CCN(C(=O)c2ccccc2)CC1 [NSC680509] is lower in “MEAN CpLDH INHIBITION (%)” value: -21.11% for the first, -41.56% for the second.

Going from CCCCC(/C=N/N=C(N)N)CC.Cc1cc(O)c(C(C)C)cc1S(=O)(=O)O [NSC66300] to Cc1cc(N(CC(C)Br)CC(C)Br)ccc1N=Nc1ccccc1C(=O)O (stereo not drawn) [NSC240419], the “MEAN CpLDH INHIBITION (%)” value falls from -42.12% to -69.26%.

Going from COC(=O)c1cc(-c2c[nH]cc2C(=O)OCc2ccccc2)cn1S(=O)(=O)c1ccc(C)cc1 [NSC679527] to COc1ccc(/C=C2\N=C(c3ccccc3)OC2=O)c(OCc2ccccc2)c1 [NSC262665], the “MEAN CpLDH INHIBITION (%)” value rises from -27.66% to -17.00%.

Going from O=[N+]([O-])c1ccc2oc(=Nc3ccccc3)c(Nc3ccccc3)nc2c1 [NSC671424] to C=C1CC(COc2cc(=O)oc3ccccc23)(c2ccccc2)OC1=O (stereo not drawn) [NSC668270], the “MEAN CpLDH INHIBITION (%)” value falls from -1.46% to -4.80%.

First: Nc1nc(N)c2cc(Sc3cccc(C(F)(F)F)c3)ccc2n1 [NSC305782]
Second: Cl.Nc1ccc2cc3ccc(N)cc3nc2c1 [NSC605756]
The “MEAN CpLDH INHIBITION (%)” value of the first is higher: -11.03% for the first, -35.77% for the second.

Going from CN(C)C(=S)/N=c1\ss/c(=N\C(=S)N(C)C)n1-c1ccc2c(c1)OCO2 [NSC622589] to CN(C)C(=S)/N=c1\ssc(=S)n1Cc1ccccn1 [NSC645617], the “MEAN CpLDH INHIBITION (%)” value falls from -7.95% to -28.16%.

First: c1coc(CNc2ncnc3[nH]ncc23)c1 [NSC1620]
Second: Nc1nc(SCc2ccccc2Cl)c2[nH]cnc2n1 [NSC36826]
The “MEAN CpLDH INHIBITION (%)” value of the first is lower: -4.87% for the first, -1.63% for the second.

Compared with C[Si](C)(CN)CN.[Cl][Pt][Cl] [NSC603577], N.N.[Cl][Pt][Cl] [NSC119875] is lower in “MEAN CpLDH INHIBITION (%)” value: -0.38% for the first, -45.38% for the second.

First: NP(=O)(Oc1c2occc2cc2ccc(=O)oc12)N(CCCl)CCCl (stereo not drawn) [NSC345081]
Second: CN(C)CCCN1c2ccccc2Sc2ccc3ccccc3c21 [NSC18891]
The “MEAN CpLDH INHIBITION (%)” value of the first is lower: -64.34% for the first, -7.99% for the second.

Going from O=C1C=Cc2ncccc2C1=O [NSC400944] to Nc1ccc(N)c2c1C(=O)c1ccccc1C2=O [NSC7833], the “MEAN CpLDH INHIBITION (%)” value falls from -2.52% to -11.00%.

Going from CO[C@@H](/C(C)=C/C=C/C(C)=C/c1coc(C)n1)[C@@H](C)[C@@H]1C[C@H](O)[C@@]2(C)O[C@@H]2/C=C/[C@@H](C)[C@H]2C[C@H](CC(=O)O2)C[C@@H]2O[C@H]2C(=O)O1 [NSC332598] to COC(=O)[C@@]12OC[C@]34[C@H]([C@@H](O)[C@@H]1O)[C@@]1(C)CC(=O)C(O)=C(C)[C@@H]1C[C@H]3OC(=O)[C@H](OC(=O)C=C(C)C)[C@@H]24 [NSC172924], the “MEAN CpLDH INHIBITION (%)” value rises from -143.77% to -39.50%.

Going from CC(=O)Oc1ccc(C(c2ccc(OC(C)=O)cc2)c2ccccn2)cc1 [NSC614826] to COc1ccc(/C(=N/O)C(c2ccc(OC)cc2)C2C(=O)Oc3ccccc32)cc1 (stereo not drawn) [NSC641607], the “MEAN CpLDH INHIBITION (%)” value falls from -3.85% to -85.63%.

Compared with CC1=CC(=C(c2ccc(N)cc2)c2ccc(N)cc2)C=CC1=N.Cl [NSC93739], CC(=O)c1ccc(Oc2ccc(/C(C)=N\N=C(N)N)cc2)cc1.O=[N+]([O-])O [NSC97911] is higher in “MEAN CpLDH INHIBITION (%)” value: -24.21% for the first, -11.97% for the second.

Going from CCC(=O)OC1CCn2c1nc1c2C(=O)C(C)=C(N2CC2)C1=O (stereo not drawn) [NSC651079] to O=C1C(Cl)=C(N2CCN(C3=C(Cl)C(=O)c4ccccc4C3=O)CC2)C(=O)c2ccccc21 [NSC40341], the “MEAN CpLDH INHIBITION (%)” value rises from -28.42% to -22.69%.

Compared with C=C(C)C(=O)OC1CCC2(C)C(CCC3C2CCC2(C)C(c4ccc(=O)oc4)CC4OC432)C1 (stereo not drawn) [NSC267712], CC(C)C1=CC2=CC[C@@H]3[C@](C)(CCC[C@@]3(C)C(=O)O)[C@H]2CC1 [NSC25149] is higher in “MEAN CpLDH INHIBITION (%)” value: -57.63% for the first, -16.60% for the second.

First: NC(=O)c1c([N+](=O)[O-])cc(C(F)(F)F)cc1[N+](=O)[O-] [NSC622640]
Second: O=[N+]([O-])c1ccccc1S(=O)(=O)c1ccccc1[N+](=O)[O-] [NSC633001]
The “MEAN CpLDH INHIBITION (%)” value of the first is higher: -12.99% for the first, -15.73% for the second.

Going from Nc1ccc2c(c1)S(=O)(=O)c1cc(N)ccc1-2 [NSC13966] to CC1(C)N=C(N)N=C(N)N1c1ccc(CCCCc2ccc(Cl)cc2Cl)cc1 [NSC104129], the “MEAN CpLDH INHIBITION (%)” value falls from -21.73% to -53.74%.

Going from CCCN(CCC)C(=S)Sc1nc(C)nc(N2CCN(c3nc(C)nc(SC(=S)N(CCC)CCC)c3[N+](=O)[O-])CC2)c1[N+](=O)[O-] [NSC675593] to Cc1nc2c(nc1C)C(=O)c1ccccc1C2=O [NSC602617], the “MEAN CpLDH INHIBITION (%)” value rises from -141.86% to -40.33%.

First: O=C1NC(=S)NC(=O)C1C(=O)Nc1ccccc1 [NSC336628]
Second: O=C1C(=O)c2ccccc2C(O)=C1CC=C(Cl)Cl [NSC126771]
The “MEAN CpLDH INHIBITION (%)” value of the first is lower: -66.49% for the first, -15.17% for the second.

First: O=C(Nc1cccc(C(F)(F)F)c1)C(=O)C(C(=O)c1ccc(Cl)c(Cl)c1)C1OC(=O)c2ccccc21 (stereo not drawn) [NSC644794]
Second: COC(=O)C(=O)C(C(=O)C(=O)Nc1cc(C)ccc1C)c1nc2ccc(C(=O)c3ccccc3)cc2[nH]c1=O (stereo not drawn) [NSC642040]
The “MEAN CpLDH INHIBITION (%)” value of the first is lower: -17.50% for the first, -9.38% for the second.

Going from NC(=O)C1=C[C@H]2[C@@H]3C=C[C@@]2(O)C(=O)O[C@@H]3O1 [NSC357683] to COC1CC(C)C(OC)c2cc(O)cc(c2O)NC(=O)/C(C)=C\C=C/C(C)C(OC(N)=O)/C(C)=C\C(C)C1OC (stereo not drawn) [NSC330500], the “MEAN CpLDH INHIBITION (%)” value falls from -9.72% to -19.04%.

First: O=C([O][Hg][CH2]C1COC([CH2][Hg][O]C(=O)c2ccccc2)CO1)c1ccccc1 (stereo not drawn) [NSC30916]
Second: COC1(O)C(=O)c2ccccc2OC1(OC)c1ccccc1 (stereo not drawn) [NSC95848]
The “MEAN CpLDH INHIBITION (%)” value of the first is higher: -5.35% for the first, -17.43% for the second.

Going from [Cl][Pt+2][Cl].[NH-]C1CCCCC1[NH-] (stereo not drawn) [NSC265459] to N[C@H](C(=O)O)[C@H]1ON=C(Cl)[C@H]1O [NSC176324], the “MEAN CpLDH INHIBITION (%)” value rises from -11.78% to -9.23%.

Going from CC(C)CCCCCCCCCCCCC(=O)NCC(=O)NC1C(O)C(O)C(Nc2ncnc3nc[nH]c23)OC1C(O)CO (stereo not drawn) [NSC65104] to CCCCCCCCCCCCCCCC[N+](C)(C)Cc1ccc(F)cc1.[Cl-] [NSC693172], the “MEAN CpLDH INHIBITION (%)” value rises from -113.50% to -0.60%.

Going from COc1cc2oc(=O)cc(C)c2cc1[N+](=O)[O-] [NSC299879] to COc1ccc2cccc(C(=N)c3ccc(C)c4c3CCC4)c2c1 [NSC625590], the “MEAN CpLDH INHIBITION (%)” value rises from -32.05% to -11.59%.

First: CCOC(=O)/N=C(\N)SCc1ccccc1 [NSC622684]
Second: Cc1c(C(=O)C/C(=N/NC(=O)CC#N)C(N)=O)[n+](=O)c2ccccc2n1[O-] [NSC635542]
The “MEAN CpLDH INHIBITION (%)” value of the first is higher: -0.38% for the first, -10.72% for the second.

Compared with Cc1c(N=Cc2ccc(N(CCC#N)CCC#N)cc2)c(=O)n(-c2ccccc2)n1C [NSC620280], O=C1NC(c2cccc3ccccc23)Nc2ccccc21 (stereo not drawn) [NSC145669] is higher in “MEAN CpLDH INHIBITION (%)” value: -51.47% for the first, 0.07% for the second.

Going from CC1(C)NC(=O)N(CCCCCCN2C(=O)NC(C)(C)C2=O)C1=O [NSC376791] to COc1ccc(C2C(C)C(=O)C(C)C(c3ccc(OC)cc3)N2N=O)cc1 (stereo not drawn) [NSC626734], the “MEAN CpLDH INHIBITION (%)” value rises from -26.30% to -0.09%.

Compared with CN(CO)c1nc(N(C)CO)nc(N(C)CO)n1 [NSC283162], OC[C@H]1O[C@@H](n2cnc3cncnc32)[C@H](O)[C@@H]1O [NSC65423] is higher in “MEAN CpLDH INHIBITION (%)” value: -65.77% for the first, -32.77% for the second.

Going from [Cl-].c1csc(C[N+]23CN4CN(CN(C4)C2)C3)c1 [NSC49660] to O=NN(CCCl)C(=O)NCc1ccc[n+]([O-])c1 [NSC307454], the “MEAN CpLDH INHIBITION (%)” value falls from -3.53% to -54.21%.

Compared with [O-][S+]1c2ccccc2N=C(c2cccc3ccccc23)CC1c1cccc2ccccc12 (stereo not drawn) [NSC634926], Cc1ccc2[c](c1)[Sn]([c]1ccccc1)([c]1ccccc1)[c]1cc(C)ccc1N2C [NSC118030] is lower in “MEAN CpLDH INHIBITION (%)” value: -0.08% for the first, -56.74% for the second.

Going from O=C1N[C@H]2[C@H](O)[C@H](O)[C@@H](O)[C@H](O)[C@@H]2c2cc3c(c(O)c21)OCO3 [NSC349156] to CCN(CC)CCNC(=O)c1nn(-c2ccc(Cl)cc2)c2c1CCc1cc(OC)ccc1-2 [NSC288010], the “MEAN CpLDH INHIBITION (%)” value falls from -36.89% to -45.22%.

First: COc1ccc(-c2cc(-c3ccccc3)nc3c2CC(=O)Nc2ccccc2-3)cc1OC [NSC682769]
Second: O=C(Nc1ccccc1-c1nn(C(=S)Nc2ccccc2)c(=S)n(C(=S)Nc2ccccc2)c1=O)C(F)(F)F [NSC623093]
The “MEAN CpLDH INHIBITION (%)” value of the first is higher: -0.10% for the first, -49.57% for the second.

Going from Cc1ccc(S(=O)(=O)[O-])cc1.Cc1ccc(S(=O)(=O)[O-])cc1.Cn1c(-c2ccc(/C=C/C=N/NC(=O)c3ccc(C(=O)N/N=C/C=C/c4ccc(-c5c[n+]6ccccc6n5C)cc4)cc3)cc2)c[n+]2ccccc12 [NSC603169] to O=C(Nc1ccc(Sc2ccc(N=Nc3c(O)c(S(=O)(=O)O)cc4cc(S(=O)(=O)O)ccc34)cc2)cc1)c1ccc(N=Nc2c(O)ccc3c(S(=O)(=O)O)cc(S(=O)(=O)O)cc23)cc1 [NSC76027], the “MEAN CpLDH INHIBITION (%)” value rises from -164.45% to -85.04%.

Compared with CC1(C)CC2=NO[Se]3=C2C(=NO3)C1 [NSC328587], Cc1ccc2c(ccc(C=Cc3ccc(O)c4ncccc34)[n+]2C)c1 [NSC85700] is higher in “MEAN CpLDH INHIBITION (%)” value: -53.59% for the first, -37.65% for the second.

Going from COc1ccc(C(=O)/C(Br)=C\C(=O)[O-])cc1.[Na+] [NSC104801] to CCCCOc1ccc(NC(N)=Nc2ccc(Cl)cc2)cc1 [NSC78365], the “MEAN CpLDH INHIBITION (%)” value falls from -32.70% to -60.70%.

Going from OC(CBr)C(O)C(O)C(O)CBr (stereo not drawn) [NSC616232] to CC(/C=N/N=C(N)N)=N\N=C(N)N [NSC32946], the “MEAN CpLDH INHIBITION (%)” value falls from -42.37% to -50.60%.
